The text below walks through data of patent US8772494B2, “N-aryl piperidine substituted biphenylcarboxamides as inhibitors of apolipoprotein b” (Janssen Pharmaceutica N.V., priority 2003, dated 2014).

Test [1] deals with ApoB secretion, HepG2 cells. Put plainly: Quantification of the secretion of ApoB. The format is cell-based. The conditions noted are these: Homo sapiens, 24 hours of incubation, secreted apoB immunoprecipitated, read-out: pIC50 values (= −log IC50 value) (converted). How it is done: HepG2 cells were cultured in 24-well plates in MEM Rega 3 containing 10% fetal calf serum. At 70% confluency, the medium was changed and the test compound or carrier (DMSO, 0.4% final concentration) was added. After 24 hours of incubation, the medium was transferred to Eppendorf tubes and cleared by centrifugation. A sheep antibody directed against either apoB was added to the supernatant and the mixture was kept at 8° C. for 24 hours. Then, rabbit anti-sheep antibody was added and the immune complex was allowed to precipitate for 24 hours at 8° C. The immunoprecipitate was pelleted by centrifugation for 25 minutes at 1320 g and washed twice with a buffer containing 40 mM Mops, 40 mM NaH2PO4, 100 mM NaF, 0.2 mM DTT, 5 mM EDTA, 5 mM EGTA, 1% Triton-X-100, 0.5% sodium deoxycholate (DOC), 0.1% SDS, 0.2 μM leupeptin and 0.2 μM PMSF. Radioactivity in the pellet was quantified by liquid scintillation counting.
Resulting IC50 values are enumerated in Table C.1. When the calculated IC50 was below 6, not enough data points were available at the tested concentrations to calculate an IC50 value.

A further test concerns the target MTP (Homo sapiens, UniProt P55157). Put plainly: MTP assay (triglyceride transfer from donor to acceptor vesicles). The test is classed as biochemical. The conditions noted are these: MTP activity, percent triglyceride transfer, 37° C.; read-out: pIC50 values (= −log IC50 value) (converted). Here is the method: MTP activity was measured using an assay similar to one described by J. R. Wetterau and D. B. Zilversmit in Chemistry and Physics of Lipids, 38, 205-222 (1985). To prepare the donor and acceptor vesicles, the appropriate lipids in chloroform were put into a glass test tube and dried under a stream of N2. A buffer containing 15 mM Tris-HCl pH 7.5, 1 mM EDTA, 40 mM NaCl, 0.02% NaN3 (assay buffer) was added to the dried lipid. The mixture was vortexed briefly and the lipids were then allowed to hydrate for 20 min on ice. Vesicles were then prepared by bath sonication (Branson 2200) at room temperature for maximum 15 min. Butylated hydroxytoluene was included in all vesicle preparations at a concentration of 0.1%. The lipid transfer assay mixture contained donor vesicles (40 nmol phosphatidylcholine, 7.5 mol % of cardiolipin and 0.25 mol % glycerol tri [1-^14C]-oleate), acceptor vesicles (240 nmol phosphatidylcholine) and 5 mg BSA in a total volume of 675 μl in a 1.5 ml microcentrifuge tube. Test compounds were added dissolved in DMSO (0.13% final concentration). After 5 minutes of pre-incubation at 37° C., the reaction was started by the addition of MTP in 100 μl dialysis buffer. The reaction was stopped by the addition of 400 μl DEAE-52 cellulose pre-equilibrated in 15 mM Tris-HCl pH 7.5, 1 mM EDTA, 0.02% NaN3 (1:1, vol/vol). The mixture was agitated for 4 min and centrifuged for 2 min at maximum speed in an Eppendorf centrifuge (4° C.) to pellet the DEAE-52-bound donor vesicles. An aliquot of the supernatant containing the acceptor liposomes was counted and the [^14C]-counts were used to calculate the percent triglyceride transfer from donor to acceptor vesicles.
Resulting IC50 values are enumerated in Table C.2. When the calculated IC50 was below 7, not enough data points were available at the tested concentrations to calculate an IC50 value.

A value given as a limit tells only on which side of the number the result lay.

What is called IC50 is the concentration that gives 50% inhibition.

Sequence of MTP (P55157 19-894, species assumed): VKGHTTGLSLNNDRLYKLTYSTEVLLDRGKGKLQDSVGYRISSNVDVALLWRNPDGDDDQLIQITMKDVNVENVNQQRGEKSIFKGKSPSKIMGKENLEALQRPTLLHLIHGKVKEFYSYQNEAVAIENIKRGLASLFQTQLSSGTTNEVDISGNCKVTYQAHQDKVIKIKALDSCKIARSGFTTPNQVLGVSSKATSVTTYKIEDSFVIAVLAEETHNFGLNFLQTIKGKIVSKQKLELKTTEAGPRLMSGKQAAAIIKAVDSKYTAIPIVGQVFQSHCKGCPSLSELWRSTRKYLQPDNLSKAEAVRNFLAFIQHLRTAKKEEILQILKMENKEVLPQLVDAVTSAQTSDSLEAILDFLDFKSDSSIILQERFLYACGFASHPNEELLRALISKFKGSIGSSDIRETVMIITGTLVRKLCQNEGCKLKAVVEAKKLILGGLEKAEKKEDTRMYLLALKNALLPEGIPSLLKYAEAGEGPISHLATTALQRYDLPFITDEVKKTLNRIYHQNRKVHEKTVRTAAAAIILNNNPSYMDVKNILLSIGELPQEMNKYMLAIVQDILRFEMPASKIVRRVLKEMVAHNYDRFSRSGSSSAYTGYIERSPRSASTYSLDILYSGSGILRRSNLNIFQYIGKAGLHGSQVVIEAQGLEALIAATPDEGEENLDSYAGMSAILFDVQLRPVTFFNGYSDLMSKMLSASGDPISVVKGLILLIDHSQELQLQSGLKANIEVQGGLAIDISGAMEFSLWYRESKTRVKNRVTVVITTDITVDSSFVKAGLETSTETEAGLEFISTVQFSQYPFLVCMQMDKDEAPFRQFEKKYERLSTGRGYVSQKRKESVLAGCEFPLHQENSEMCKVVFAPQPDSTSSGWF
Sequence of MTP (P07237 18-508 partner, species assumed): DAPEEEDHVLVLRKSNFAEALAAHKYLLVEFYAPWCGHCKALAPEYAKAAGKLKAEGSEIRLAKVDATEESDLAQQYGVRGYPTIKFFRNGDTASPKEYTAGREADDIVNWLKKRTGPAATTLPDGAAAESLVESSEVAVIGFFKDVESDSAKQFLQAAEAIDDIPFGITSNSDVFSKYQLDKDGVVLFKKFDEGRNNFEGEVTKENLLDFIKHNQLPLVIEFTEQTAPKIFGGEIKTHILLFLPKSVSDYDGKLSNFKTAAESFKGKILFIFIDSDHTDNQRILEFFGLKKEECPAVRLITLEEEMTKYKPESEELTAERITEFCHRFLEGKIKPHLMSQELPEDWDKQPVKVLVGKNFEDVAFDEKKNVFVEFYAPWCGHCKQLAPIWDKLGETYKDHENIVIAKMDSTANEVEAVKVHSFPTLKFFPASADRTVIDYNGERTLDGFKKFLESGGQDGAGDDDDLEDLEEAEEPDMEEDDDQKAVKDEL

Consider `CCOC(=O)C1CCCCN1C(=O)CC1CCN(c2ccc(NC(=O)c3ccccc3-c3ccc(C(F)(F)F)cc3)cc2)CC1` (stereo not drawn) [Compound 1], for which the IC50 in test [1] was above 1000 nM; at MTP, above 100 nM. `CCOC(=O)C1CCCN(C(=O)CC2CCN(c3ccc(NC(=O)c4ccccc4-c4ccc(C(F)(F)F)cc4)cc3)CC2)C1` (stereo not drawn) [Compound 2]: the IC50 is 65.3 nM in test [1] and above 1000 nM at MTP. For the compound `COC(=O)C(C)NC(=O)CC1CCN(c2ccc(NC(=O)c3ccccc3-c3ccc(C(F)(F)F)cc3)cc2)CC1` (stereo not drawn) [Compound 3], the IC50 in test [1] is 61.4 nM; at MTP, 7.82 nM. `COC(=O)C(NC(=O)CC1CCN(c2ccc(NC(=O)c3ccccc3-c3ccc(C(F)(F)F)cc3)cc2)CC1)C(C)C` (stereo not drawn) [Compound 4]: the IC50 in test [1] is 48.5 nM; on MTP, 41.3 nM. Turning to `CCOC(=O)C(C)NC(=O)CC1CCN(c2ccc(NC(=O)c3ccccc3-c3ccc(C(F)(F)F)cc3)cc2)CC1` (stereo not drawn) [Compound 5], the IC50 in test [1] is below 30 nM; on MTP, 2.06 nM. As to `CCOC(=O)C(Cc1c[nH]c2ccccc12)NC(=O)CC1CCN(c2ccc(NC(=O)c3ccccc3-c3ccc(C(F)(F)F)cc3)cc2)CC1` (stereo not drawn) [Compound 6], the IC50 in test [1] was below 30 nM; on MTP, 9.31 nM. Take `CCOC(=O)C(CCSC)NC(=O)CC1CCN(c2ccc(NC(=O)c3ccccc3-c3ccc(C(F)(F)F)cc3)cc2)CC1` (stereo not drawn) [Compound 7]: the IC50 in test [1] was 138 nM; at MTP it was 25.5 nM. On to `CCOC(=O)CC(NC(=O)CC1CCN(c2ccc(NC(=O)c3ccccc3-c3ccc(C(F)(F)F)cc3)cc2)CC1)c1ccc2c(c1)OCO2` (stereo not drawn) [Compound 8], for which the IC50 in test [1] is below 30 nM; at MTP, 20.1 nM. The matching figures for `COC(=O)[C@H]1CCCCN1C(=O)CC1CCN(c2ccc(NC(=O)c3ccccc3-c3ccc(C(F)(F)F)cc3)cc2)CC1` [Compound 9]: above 1000 nM and above 100 nM.

Regarding `COC(=O)[C@@H]1CCCCN1C(=O)CC1CCN(c2ccc(NC(=O)c3ccccc3-c3ccc(C(F)(F)F)cc3)cc2)CC1` [Compound 10], the IC50 was above 1000 nM in test [1] and above 100 nM at MTP. With `CCOC(=O)[C@H]1CCCN(C(=O)CC2CCN(c3ccc(NC(=O)c4ccccc4-c4ccc(C(F)(F)F)cc4)cc3)CC2)C1` [Compound 11], the results for the IC50 (in test [1]; at MTP) were above 1000 nM and above 100 nM, respectively.

With `CCOC(=O)[C@@H]1CCCN(C(=O)CC2CCN(c3ccc(NC(=O)c4ccccc4-c4ccc(C(F)(F)F)cc4)cc3)CC2)C1` [Compound 12], the IC50 in test [1] is above 1000 nM; at MTP it was above 100 nM. The like results for `CCOC(=O)[C@H]1CCCN1C(=O)CC1CCN(c2ccc(NC(=O)c3ccccc3-c3ccc(C(F)(F)F)cc3)cc2)CC1` [Compound 13] were, in that order, above 1000 nM and above 100 nM.

In the case of `CCOC(=O)[C@@H]1C[C@@H](O)CN1C(=O)CC1CCN(c2ccc(NC(=O)c3ccccc3-c3ccc(C(F)(F)F)cc3)cc2)CC1` [Compound 14], the IC50 is above 1000 nM in test [1] and above 100 nM at MTP.

Take `COC(=O)C1C[C@@H](O)CN1C(=O)CC1CCN(c2ccc(NC(=O)c3ccccc3-c3ccc(C(F)(F)F)cc3)cc2)CC1` (stereo partly drawn) [Compound 15]: the IC50 in test [1] was above 1000 nM; at MTP, above 100 nM.

In the case of `COC(=O)[C@@H]1C[C@H](O)CN1C(=O)CC1CCN(c2ccc(NC(=O)c3ccccc3-c3ccc(C(F)(F)F)cc3)cc2)CC1` [Compound 16], the IC50 was above 1000 nM in test [1] and above 100 nM on MTP. For `CCOC(=O)[C@H](C)NC(=O)CC1CCN(c2ccc(NC(=O)c3ccccc3-c3ccc(C(F)(F)F)cc3)cc2)CC1` [Compound 17], the IC50 is above 1000 nM in test [1] and 5.6 nM at MTP. Turning to `CCOC(=O)[C@@H](C)NC(=O)CC1CCN(c2ccc(NC(=O)c3ccccc3-c3ccc(C(F)(F)F)cc3)cc2)CC1` [Compound 18], the concentration for half-maximal inhibition (IC50) is below 30 nM in test [1] and 3.42 nM at MTP.

Consider `CCOC(=O)[C@@H](NC(=O)CC1CCN(c2ccc(NC(=O)c3ccccc3-c3ccc(C(F)(F)F)cc3)cc2)CC1)C(C)C` [Compound 19], for which the IC50 in test [1] is 116 nM; at MTP it was above 100 nM. Consider `CCOC(=O)[C@H](NC(=O)CC1CCN(c2ccc(NC(=O)c3ccccc3-c3ccc(C(F)(F)F)cc3)cc2)CC1)C(C)C` [Compound 20], for which the IC50 in test [1] was below 30 nM; on MTP, 6.37 nM. For the compound `CCOC(=O)[C@H](NC(=O)CC1CCN(c2ccc(NC(=O)c3ccccc3-c3ccc(C(F)(F)F)cc3)cc2)CC1)c1ccccc1` [Compound 21], the values for the IC50 (in test [1]; at MTP) were 121 nM and 3.37 nM, respectively. Consider `CCOC(=O)[C@@H](NC(=O)CC1CCN(c2ccc(NC(=O)c3ccccc3-c3ccc(C(F)(F)F)cc3)cc2)CC1)c1ccccc1` [Compound 22], for which the figures for the IC50 (in test [1]; at MTP) were 54.8 nM and 8.93 nM, respectively. Take `CCOC(=O)[C@H](Cc1ccccc1)NC(=O)CC1CCN(c2ccc(NC(=O)c3ccccc3-c3ccc(C(F)(F)F)cc3)cc2)CC1` [Compound 24]: the IC50 in test [1] was 841 nM; on MTP, 76.7 nM. As to `CCOC(=O)[C@@H](Cc1ccccc1)NC(=O)CC1CCN(c2ccc(NC(=O)c3ccccc3-c3ccc(C(F)(F)F)cc3)cc2)CC1` [Compound 25], in test [1], the IC50 is above 1000 nM. `CCOC(=O)CCNC(=O)CC1CCN(c2ccc(NC(=O)c3ccccc3-c3ccc(C(F)(F)F)cc3)cc2)CC1` [Compound 26]: the IC50 was 58.6 nM in test [1] and 8.41 nM on MTP. The like results for `COC(=O)[C@H](CCN)NC(=O)CC1CCN(c2ccc(NC(=O)c3ccccc3-c3ccc(C(F)(F)F)cc3)cc2)CC1` [Compound 27] were, in that order, 643 nM and above 100 nM.

Regarding `COC(=O)[C@H](CCCN)NC(=O)CC1CCN(c2ccc(NC(=O)c3ccccc3-c3ccc(C(F)(F)F)cc3)cc2)CC1` [Compound 28], the IC50 in test [1] was above 1000 nM; at MTP, above 100 nM. Regarding `COC(=O)[C@H](CCCCN)NC(=O)CC1CCN(c2ccc(NC(=O)c3ccccc3-c3ccc(C(F)(F)F)cc3)cc2)CC1` [Compound 29], the IC50 in test [1] was above 1000 nM; on MTP, above 100 nM.

Turning to `CCOC(=O)[C@H](CC(C)C)NC(=O)CC1CCN(c2ccc(NC(=O)c3ccccc3-c3ccc(C(F)(F)F)cc3)cc2)CC1` [Compound 30], the IC50 in test [1] was 575 nM; at MTP it was 22 nM.

`CCOC(=O)[C@H](Cc1ccc(O)cc1)NC(=O)CC1CCN(c2ccc(NC(=O)c3ccccc3-c3ccc(C(F)(F)F)cc3)cc2)CC1` [Compound 31]: the IC50 in test [1] is above 1000 nM; on MTP, 81.1 nM. For `CCOC(=O)[C@@H]1CCCN1C(=O)CC1CCN(c2ccc(NC(=O)c3ccccc3-c3ccc(C(F)(F)F)cc3)cc2)CC1` [Compound 32], the IC50 in test [1] is 406 nM; on MTP, 31.6 nM. For the compound `CCOC(=O)CN(C)C(=O)CC1CCN(c2ccc(NC(=O)c3ccccc3-c3ccc(C(F)(F)F)cc3)cc2)CC1` [Compound 33], the IC50 in test [1] is above 1000 nM; at MTP, 69.5 nM. Take `CCOC(=O)C[C@H](NC(=O)CC1CCN(c2ccc(NC(=O)c3ccccc3-c3ccc(C(F)(F)F)cc3)cc2)CC1)C(=O)OCC` [Compound 36]: the IC50 on MTP was 39.4 nM. For `CCOC(=O)[C@H](C)NC(=O)CC1CCN(c2ccc(NC(=O)c3cccc(C)c3-c3ccc(C(F)(F)F)cc3)cn2)CC1` [Compound 45], the IC50 in test [1] was 962 nM.

Turning to `COC(=O)[C@H](C)NC(=O)CC1CCN(c2ccc(NC(=O)c3cccc(C)c3-c3ccc(C(F)(F)F)cc3)cc2)CC1` [Compound 46], the concentration for half-maximal inhibition (IC50) in test [1] was 218 nM. The same measure, in the same setting: in the case of `CCOC(=O)[C@H](C)NC(=O)CC1CCN(c2ccc(N(C)C(=O)c3ccccc3-c3ccc(C(F)(F)F)cc3)cc2)CC1` [Compound 47] it was above 1000 nM. Consider `CCOC(=O)[C@H](C)NC(=O)CC1CCN(c2ccc(NC(=O)c3cccc(C)c3-c3ccc(C(F)(F)F)cc3)nc2)CC1` [Compound 48], for which the IC50 in test [1] was 670 nM. Consider `CCOC(=O)[C@H](C)NC(=O)CC1CCN(c2ccc(N(C)C(=O)c3cccc(C)c3-c3ccc(C(F)(F)F)cc3)cn2)CC1` [Compound 50], for which, at MTP, the IC50 was 10.4 nM.
